According to paper PMC2919500 (Biochemistry, 2008):
Where two headings read alike, the source gives them in different places. Values belong to the compound of their own block, whether it stands above or below them.

Legend:
[1] = target: T1, PLCδ1 PH domain (Mus musculus, UniProt Q8R3B1); experiment: IP6 competitive displacement assay
T1 sequence (Q8R3B1 12-142): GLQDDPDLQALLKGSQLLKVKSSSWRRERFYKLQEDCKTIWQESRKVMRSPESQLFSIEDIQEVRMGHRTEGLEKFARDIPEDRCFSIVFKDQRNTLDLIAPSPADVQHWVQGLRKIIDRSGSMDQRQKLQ

[2] = target: T1, PLCδ1 PH domain; experiment: Direct IP6 titration of the free PH domain; conditions: read-out: KD(IP6), 25 °C, binding buffer pH 7.4
[3] = target: T2, AKT1 PH domain (Homo sapiens, UniProt P31749); experiment: Direct IP6 titration of the free PH domain; conditions: read-out: KD(IP6); free WT AKT1 PH domain, 25 °C, binding buffer pH 7.4
[4] = target: T3, AKT1 E17K PH domain (Homo sapiens, UniProt P31749, E17K); experiment: Direct IP6 titration of the free PH domain; type: binding
[5] = target: T3, AKT1 E17K PH domain; experiment: IP6 competitive displacement assay; conditions: for Ki: read-out: KI(IP6)
[6] = target: T2, AKT1 PH domain; experiment: IP6 competitive displacement assay
[7] = target: RFP-AKT1 E17K PH (Homo sapiens, UniProt P31749, E17K); experiment: Plasma membrane targeting in live NIH 3T3 cells; type: cell-based; conditions: serum starvation with inhibitor prior to imaging, data not shown
[8] = target: Citrine-AKT1 PH (Homo sapiens, UniProt P31749); experiment: Plasma membrane targeting in live NIH 3T3 cells; type: cell-based; conditions: serum-starved NIH 3T3 cells, 10 nM PDGF 5 min, then 800 nM wortmannin 15 min
[9] = target: T4, CFP-PLCδ1 PH (Homo sapiens, UniProt P51178); experiment: Plasma membrane targeting in live NIH 3T3 cells; type: cell-based; conditions: serum starvation with inhibitor prior to imaging, data not shown
T4 sequence (P51178 21-130 limits assumed): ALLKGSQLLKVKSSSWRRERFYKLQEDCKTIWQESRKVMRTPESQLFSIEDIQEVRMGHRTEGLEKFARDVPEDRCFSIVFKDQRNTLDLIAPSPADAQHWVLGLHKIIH

[10] = target: T3, AKT1 E17K PH domain; experiment: Stopped-flow association and dissociation kinetics

T2 sequence (P31749 1-120): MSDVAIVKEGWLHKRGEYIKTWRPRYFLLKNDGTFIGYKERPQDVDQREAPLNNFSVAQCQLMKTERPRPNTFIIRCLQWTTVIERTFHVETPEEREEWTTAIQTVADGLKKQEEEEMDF
T3 sequence (P31749 1-120 E17K): as the sequence (P31749 1-120) above, with E17K counted along it
Sequence of RFP-AKT1 E17K PH (P31749 5-108 E17K limits assumed): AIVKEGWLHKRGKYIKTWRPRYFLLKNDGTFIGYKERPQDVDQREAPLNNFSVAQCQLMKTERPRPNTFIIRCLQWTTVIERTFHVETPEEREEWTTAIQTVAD
Sequence of Citrine-AKT1 PH (P31749 5-108 limits assumed): as the sequence (P31749 5-108 E17K limits assumed) above, with K13E counted along it

Ki ([1]; read-out: KI(IP6), displacement of PLCδ1 PH from PM(+)PI(4,5)P2): 47 ± 4 µM
Kd [2]: 3 ± 0.2 µM
Kd [3]: 260 ± 50 µM
Kd ([4]; read-out: KD(IP6), free AKT1 E17K PH domain, 25 °C, binding buffer pH 7.4): 11 ± 1 µM
additional IP6 binding free energy from the E17K mutation ([4]; ΔΔG, E17K versus WT AKT1 PH): 3.0 RT
Ki ([5]; displacement of AKT1 E17K PH from PM(+)PI(3,4,5)P3): 8000 ± 2000 µM
Ki ([5]; displacement of AKT1 E17K PH from PM(+)PI(4,5)P2): 210 ± 10 µM
Ki ([6]; read-out: KI(IP6), displacement of AKT1 PH from PM(+)PI(3,4,5)P3): 28000 ± 1000 µM
Compound: O=P(O)(O)OC1C(OP(=O)(O)O)C(OP(=O)(O)O)C(OP(=O)(O)O)C(OP(=O)(O)O)C1OP(=O)(O)O (stereo not drawn) [IP6, inositol 1,2,3,4,5,6-hexakisphosphate]

Compound: COC[C@H]1OC(=O)c2coc3c2[C@@]1(C)C1=C(C3=O)[C@@H]2CCC(=O)[C@@]2(C)C[C@H]1OC(C)=O [wortmannin]
constitutive plasma membrane targeting in the presence of a PI3K inhibitor [7]: not disrupted
localization of the WT AKT1 PH domain after PI3K inhibition [8]: returns to the cytoplasm
constitutive plasma membrane targeting in the presence of a PI3K inhibitor [9]: not disrupted

Kd ([1]; read-out: KD(PIPn), PLCδ1 PH, PIP lipid embedded in synthetic plasma membrane, from KD(IP6) and KI(IP6)): 0.19 ± 0.07 µM
affinity enhancement by E17K larger than for the other two ligands ([5]; PI(4,5)P2 versus IP6 and PI(3,4,5)P3): at least 10 fold
Kd ([5]; read-out: KD(PIPn), AKT1 E17K PH, PIP lipid embedded in synthetic plasma membrane, from KD(IP6) and KI(IP6)): 0.13 ± 0.03 µM
Kd ([6]; read-out: KD(PIPn), WT AKT1 PH, PIP lipid embedded in synthetic plasma membrane, from KD(IP6) and KI(IP6)): > 10 µM
kon ([10]; 0.5 µM protein, 200 µM total lipid, 25 °C): 1.3 ± 0.1 ×10^7 M^−1 s^−1
koff ([10]; dissociation with excess IP6 (40 mM), 25 °C): 1.5 ± 0.1 s⁻¹
Kd ([10]; read-out: KD (koff/kon), calculated from the rate constants): 0.12 ± 0.01 µM
Compound: L-α-phosphatidylinositol 4,5-bisphosphate [PI(4,5)P2]
